Values quoted from earlier work in patent US20070248696A1, “Composition and method for enhancing neuromuscular facilitation and cognitive functions” (priority 2006, published 2007).

Assays:
[1] = in vivo
[2] = relative to vitamin E
[3] = relative to vitamin E; remark: listed apart in the source

SMILES	motor performance and coordination in the rotorod and open field tests [1]	more potent than vitamin E in reducing oxidation [2]	more powerful than vitamin E in neutralizing pro-oxidants and free radicals that attack lipids [3]
C[N+](C)(C)CCOP(=O)(O)OP(=O)([O-])OC[C@H]1O[C@@H](n2ccc(N)nc2=O)[C@H](O)[C@@H]1O [CDP-choline, cytidine 5′-diphosphocholine]	improves motor performance and coordination		
O=C(O[C@@H]1Cc2c(O)cc(O)cc2O[C@@H]1c1cc(O)c(O)c(O)c1)c1cc(O)c(O)c(O)c1 [EGCG, (−)-epigallocatechin-3-gallate]		20 times	over 200 times
